Holding throughout (conditions): 72 h
The test system of assay [1] is U2OS. Kind of assay: drug sensitivity score (DSS) for viability; higher = more toxic; extreme values may be limits of the assay.
Assay [2] deals with Vero E6. Described as above.
Assay [3] concerns Calu-3. The assay is described as above.
Assay [4] concerns Caco-2. The assay is described as above.
Assay [5] concerns HepG2. The description is as above.
In assay [6] the test system is U2OS. Kind of assay: relative viability EC50 (midpoint between 100% and the lowest measured viability); higher = less toxic.
Assay [7] concerns Caco-2. The assay is described as above.
In assay [8] the test system is HepG2. Described as above.
Assay [9] concerns U2OS. Kind of assay: cell viability relative to DMSO; higher = less toxic.
The subject of assay [10] is Vero E6. The assay is described as above.
The test system of assay [11] is Calu-3. The assay is described as above.
The subject of assay [12] is Caco-2. The assay is described as above.
Assay [13] deals with HepG2. The description is as above.
For assay [14], the system named is Vero E6. Briefly: relative viability EC50 (midpoint between 100% and the lowest measured viability); higher = less toxic.

As a reminder, the cell viability is a read-out of living cells in per cent, often relative to untreated cells.

Some results are limits rather than exact numbers.

As for `COc1ccc(-n2c(SCCCN3C(=O)c4cccc5cccc(c45)C3=O)nnc2-c2ccncc2)cc1` [WIKI4], the drug sensitivity score was 0.2 in the assay on U2OS [1]; 2.8 with Vero E6 [2]; 4.7 in the assay on Calu-3 [3]; 1.1 in the assay with Caco-2 [4]; 0 in the assay on HepG2 [5]. Further, the “relative viability EC50” value with U2OS [6], with Caco-2 [7] and in the assay with HepG2 [8] was more than 10 µM throughout. The cell viability in the assay on U2OS [9] (1 nM) worked out at 100%; with U2OS [9] (10 nM), 109%; in the assay on U2OS [9] (100 nM), 98.6%; with U2OS [9] (1000 nM) it was 95.7%; in the assay on U2OS [9] (10000 nM), 87.3%; in the assay on Vero E6 [10] (1 nM), 97.8%. Further, the cell viability in the assay on Vero E6 [10] (10 nM) turned out to be 101%; in the assay with Vero E6 [10] (100 nM) it was 97.9%; with Vero E6 [10] (1000 nM), 91.8%; in the assay with Vero E6 [10] (10000 nM), 66.8%; in the assay on Calu-3 [11] (1 nM), 96.2%; with Calu-3 [11] (10 nM) it was 103%. Further, the cell viability in the assay on Calu-3 [11] (100 nM) was 92.8%; in the assay with Calu-3 [11] (1000 nM), 75%; in the assay on Calu-3 [11] (10000 nM), 71.3%; in the assay with Caco-2 [12] (1 nM), 90.5%; with Caco-2 [12] (10 nM) it was 109%; in the assay with Caco-2 [12] (100 nM), 96%. Also, the cell viability in the assay on Caco-2 [12] (1000 nM) worked out at 87%; in the assay with Caco-2 [12] (10000 nM) it was 95.6%; in the assay with HepG2 [13] (1 nM) it was 96.3%; in the assay on HepG2 [13] (10 nM) it was 97.6%; in the assay on HepG2 [13] (100 nM), 93.4%; in the assay on HepG2 [13] (1000 nM), 107%. The cell viability with HepG2 [13] (10000 nM) is 100%.

For `c1ccc(NCc2ccc(CNc3ccccn3)cc2)nc1` [WZ811], the drug sensitivity score with U2OS [1], in the assay with Vero E6 [2], in the assay on Caco-2 [4] and in the assay on HepG2 [5] was 0 in each case. Besides, the “relative viability EC50” value in the assay with U2OS [6], in the assay with Vero E6 [14], with Caco-2 [7] and in the assay on HepG2 [8] was more than 10 µM each time. The cell viability in the assay on U2OS [9] (1 nM) is 96.8%; with U2OS [9] (10 nM), 96.1%; in the assay with U2OS [9] (100 nM), 99.8%; with U2OS [9] (1000 nM), 96.7%; in the assay on U2OS [9] (10000 nM) it was 97.9%; in the assay on Vero E6 [10] (1 nM), 93.5%. For the same compound, the cell viability with Vero E6 [10] (10 nM) is 95.5%; with Vero E6 [10] (100 nM), 94.2%; with Vero E6 [10] (1000 nM), 101%; in the assay on Vero E6 [10] (10000 nM), 103%; with Caco-2 [12] (1 nM) it was 97.9%; in the assay with Caco-2 [12] (10 nM) it was 105%. For the same compound, the cell viability with Caco-2 [12] (100 nM) was found to be 103%; in the assay on Caco-2 [12] (1000 nM) it was 95.5%; with Caco-2 [12] (10000 nM) it was 100%; with HepG2 [13] (1 nM) it was 98.6%; with HepG2 [13] (10 nM) it was 101%; in the assay on HepG2 [13] (100 nM) it was 98.7%. The cell viability came out at 106% in the assay with HepG2 [13] (1000 nM) and 111% in the assay on HepG2 [13] (10000 nM).

For `CCNC(=O)[C@@H]1CCCN1C(=O)[C@H](CCCNC(=N)N)NC(=O)[C@H](CC(C)C)NC(=O)[C@@H](C)NC(=O)[C@H](Cc1ccc(O)cc1)NC(=O)[C@H](CO)NC(=O)[C@H](Cc1c[nH]c2ccccc12)NC(=O)[C@H](Cc1cnc[nH]1)NC(=O)[C@@H]1CCC(=O)N1` [alarelin], the drug sensitivity score with Vero E6 [2], in the assay with Caco-2 [4] and in the assay on HepG2 [5] was 0 each time. Besides, the “relative viability EC50” value in the assay on Vero E6 [14], with Caco-2 [7] and in the assay with HepG2 [8] was more than 10 µM each time. In addition, the cell viability with Vero E6 [10] (1 nM) came out at 109%; with Vero E6 [10] (10 nM) it was 106%; in the assay with Vero E6 [10] (100 nM) it was 104%; in the assay on Vero E6 [10] (1000 nM) it was 96.9%; in the assay on Vero E6 [10] (10000 nM), 102%; in the assay with Caco-2 [12] (1 nM), 116%. For the same compound, the cell viability with Caco-2 [12] (10 nM) was 100%; in the assay on Caco-2 [12] (100 nM), 86.3%; in the assay with Caco-2 [12] (1000 nM), 118%; with Caco-2 [12] (10000 nM), 102%; with HepG2 [13] (1 nM), 97.8%; in the assay with HepG2 [13] (10 nM), 103%. In addition, the cell viability is 101% in the assay on HepG2 [13] (100 nM), 92% with HepG2 [13] (1000 nM) and 93.7% in the assay with HepG2 [13] (10000 nM).

Turning to `CC1(C)S[C@@H]2[C@H](NC(=O)[C@H](N)c3ccccc3)C(=O)N2[C@H]1C(=O)O` [ampicillin], the drug sensitivity score in the assay with U2OS [1], in the assay on Vero E6 [2], in the assay on Calu-3 [3] and in the assay on HepG2 [5] was 0 throughout.

With `CC(=O)OCC(=O)[C@@]1(O)[C@@H](C)C[C@H]2[C@@H]3CCC4=CC(=O)C=C[C@]4(C)[C@@]3(F)[C@@H](O)C[C@@]21C` [betamethasone-acetate], the drug sensitivity score with U2OS [1], in the assay on Vero E6 [2], in the assay with Calu-3 [3] and with HepG2 [5] was 0 in each case.
